Measurements published in patent publication US8377923B2, “Triazole derivative or salt thereof” (Astellas Pharma Inc., priority 2008, dated 2013).
Where a name gives a salt, the structure may show the parent alone.

Columns and labels:
male ddY mice = experiment: Scopolamine-induced impairment of spontaneous alternation behavior test (Y-maze); format: in vivo, mouse; settings: oral, scopolamine 0.5 mg/kg i.p., Y-maze 8 minutes
Experimental: Test Method 5: Scopolamine-Induced Impairment of Spontaneous Alternation Behavior Test
The compound to be tested was orally administered to male ddY mice of 5 to 7 weeks of age and scopolamine was intraperitoneally administered at 0.5 mg/kg after 10 minutes. After more 20 minutes, the animals were put in a Y-maze having arms of equivalent lengths into three directions and were allowed to freely search for 8 minutes. In this time, spontaneous alternation behavior to the arm (consecutive approach three times to different arms) was counted and a spontaneous alternation rate (spontaneous alternation behavior÷(approach number−2)×100) was calculated to evaluate pharmaceutical efficacy.

[1] = target: T1, human recombinant 11β-HSD1 (Homo sapiens, UniProt P28845); experiment: Measuring test for human 11β-HSD1 inhibitory activity (HTRF cortisol detection); format: biochemical; settings: human recombinant 11β-HSD1, 200 nM cortisone, 40 μM NADPH, pH 6.6, room temperature 1 h
T1 construct: made in house
Experimental: (§1) Test Method 1: Measuring Test for Human 11β-HSD1 and 11β-HSD2 Inhibitory Activities
The procedure for measuring 11β-HSD1-inhibitory action was as follows. In this connection, the enzyme reaction and measurement were carried out using a 384-well plate. The enzyme was prepared in accordance with a document (Walker E. A. et al., Journal of Biological Chemistry, 2001, vol. 276, p. 21343-21350). The reaction was carried out by adding the compound to be tested with various concentrations to a reaction liquid consisting of 10 mM phosphate buffer (pH 6.6), 200 nM cortisone, 40 μM reduced nicotinamide adenine dinucleotide phosphate (NADPH) and human recombinant 11β-HSD1, and then incubating the same at room temperature for one hour (10 μl/well). The compound to be tested was prepared by dissolving in dimethyl sulfoxide (DMSO) to a DMSO concentration of 1% in the reaction liquid. After the enzyme reaction was completed, the enzyme inhibitory action was measured by detecting cortisol using a homogeneous time-resolved fluorescence method (HTRF). Each of the XL-665-labeled cortisol containing 400 μM carbenoxolone and cryptate-labeled cortisol antibody (CIS bio international Co., Ltd.) was added in 5 μl/well portions and incubated at room temperature for 2 hours, and then the fluorescence intensity was measured using a fluorophotometer (trade name: Discovery, Perkin Elmer Inc.), and the enzyme inhibitory action was calculated from the fluorescence intensity ratio at two wavelengths (665 nm/620 nm).
(§2) The measured result was calculated by averaging the values of 3 wells of the same condition. The ratio when DMSO was added instead of the compound to be tested was regarded as 0% and the ratio when 11β-HSD1 or 11β-HSD2 was not added was regarded as 100%, thereby calculating 50% inhibition concentration of the compound to be tested as IC50 of the compound inhibitory action.

[2] = target: T2, human recombinant 11β-HSD2 (Homo sapiens, UniProt P80365); experiment: Measuring test for human 11β-HSD2 inhibitory activity (HTRF cortisol detection); format: biochemical; settings: human recombinant 11β-HSD2, 200 nM cortisol, 200 μM NAD, pH 8.0, 37° C. 2 h
T2 sequence (P80365 1-405): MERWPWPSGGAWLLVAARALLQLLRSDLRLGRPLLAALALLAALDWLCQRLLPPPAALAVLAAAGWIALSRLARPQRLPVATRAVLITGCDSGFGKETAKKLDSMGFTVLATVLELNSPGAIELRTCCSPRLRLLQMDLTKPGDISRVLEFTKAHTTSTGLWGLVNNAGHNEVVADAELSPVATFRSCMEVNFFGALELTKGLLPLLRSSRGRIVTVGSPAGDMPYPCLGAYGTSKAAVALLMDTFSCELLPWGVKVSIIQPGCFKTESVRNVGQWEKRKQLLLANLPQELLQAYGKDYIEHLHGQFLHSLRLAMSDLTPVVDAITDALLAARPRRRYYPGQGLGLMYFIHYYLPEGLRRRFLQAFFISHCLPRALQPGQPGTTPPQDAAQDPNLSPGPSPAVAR
Experimental: as §1
Measurement of the 11β-HSD2 inhibitory activity was carried out in the same manner as in the 11β-HSD1 inhibitory activity measurement, except for the enzyme reaction conditions. The enzyme reaction was carried out by adding the compound to be tested with various concentrations to a reaction liquid consisting of 40 mM Tris-HCl buffer (pH 8.0), 200 nM cortisol, 200 μM nicotinamide adenine dinucleotide (NAD) and human recombinant 11β-HSD2, and then incubating the same at 37° C. for 2 hours (10 μl/well).
as §2

ob/ob mice = experiment: Ob/ob mouse blood-glucose lowering test; format: in vivo; settings: bid, oral, 14 days, male ob/ob mice, 12 hours after final administration
Experimental: Test Method 2: Ob/Ob Mouse Blood-Glucose Lowering Test
A compound liquid was prepared using 6% 2-hydroxypropyl-β-cyclodextrin as a solvent. Using 7 weeks-old male ob/ob mice (blood-glucose level of 300 mg/dL or more), blood-glucose levels were measured under non-fasting conditions and then the mice were divided into groups so that the blood-glucose levels became uniform among the groups. The compound to be tested was orally administered twice per day repeatedly for 14 days (3 or 10 mg/kg, bid) and a basal blood-glucose level was measured 12 hours after final administration (n=6 to 10). Similarly, the compound to be tested was orally administered twice per day repeatedly for […] (3 or 10 mg/kg, bid) and a blood glucose at fasting was measured under fasting conditions 12 hours after final administration. The blood-glucose level was measured by carrying out colorimetric determination of the amount of glucose (mg/dl) in heparin blood plasma obtained by collecting blood in a heparin-coated glass capillary and subsequently centrifuging the same.

[3] = system: CYP3A (human CYP3A gene promoter, via PXR); experiment: Human CYP3A enzyme inducibility test (PXR/CYP3A promoter luciferase reporter in HepG2); format: cell-based; settings: HepG2 cells, 16 hours after addition of the drug
Experimental: Test Method 6: Human CYP3A Enzyme Inducibility Test
3E+6 (n) Human hepatoma-derived cell lines, HepG2, were seeded on a 10 cm collagen-coated dish. Human PXR expression vectors, luciferase reporter vector in which a human CYP3A gene promoter region is inserted, and renilla expression vector as a control were transiently introduced 6 hours after cell seeding. The entire cells were further seeded on 384-well plates 16 hours after introduction, and a drug dissolved in DMSO was added thereto 6 hours after seeding. Luciferase activity of the reporter gene and control gene were measured 16 hours after addition of the drug, a value corrected by a control was regarded as an active value, and the value obtained by dividing by an activity value in which no drug was added was calculated as a fold induction.

T1 sequence (P28845 whole entry): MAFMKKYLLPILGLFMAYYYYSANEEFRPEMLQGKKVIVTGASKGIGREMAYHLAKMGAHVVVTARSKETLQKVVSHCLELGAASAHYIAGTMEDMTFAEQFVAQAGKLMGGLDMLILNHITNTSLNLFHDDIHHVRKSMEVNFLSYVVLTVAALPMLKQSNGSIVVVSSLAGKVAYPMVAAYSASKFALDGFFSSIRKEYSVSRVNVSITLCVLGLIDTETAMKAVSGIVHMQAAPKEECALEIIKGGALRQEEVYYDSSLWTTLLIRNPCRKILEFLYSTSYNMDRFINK

Compound | Minimal effective dose for spontaneous alternation rate (male ddY mice) [mg/kg] | IC50 [1] [µM] | IC50 [2] [µM] | Basal blood-glucose lowering activity (%) (ob/ob mice; 10 mg/kg) | fold induction at 16 h, 3 µM [3] | Basal blood-glucose lowering activity (%) (ob/ob mice; 3 mg/kg)
Cn1c(-c2ccccc2C(F)(F)F)nnc1C(C)(C)Oc1ccc(Cl)cc1 [Example 64, 3-[1-(4-chlorophenoxy)-1-methylethyl]-4-methyl-5-[2-(trifluoromethyl)phenyl]-4H-1,2,4-triazole monohydrochloride] | 0.001 | 0.003 | > 3 | – | – | –
Cn1c(-c2ccc(F)cc2Cl)nnc1C(C)(C)Oc1c(F)cc(F)cc1F [Example 65, 3-(2-chloro-4-fluorophenyl)-4-methyl-5-[1-methyl-1-(2,4,6-trifluorophenoxy)ethyl]-4H-1,2,4-triazole monohydrochloride] | 0.01 | 0.0053 | > 3 | – | – | –
Cn1c(-c2ccccc2C(F)(F)F)nnc1C(C)(C)Oc1ccc(Cl)cc1-c1nnco1 [Example 69, 2-[5-chloro-2-(1-methyl-1-{4-methyl-5-[2-(trifluoromethyl)phenyl]-4H-1,2,4-triazol-3-yl}ethoxy)phenyl]-1,3,4-oxadiazole] | – | 0.0055 | > 3 | 32% (10 mg/kg) | – | –
CCn1c(-c2ccc3cn[nH]c3c2)nnc1C(C)(C)Oc1c(F)cc(Cl)cc1F [Example 83, 6-{5-[1-(4-chloro-2,6-difluorophenoxy)-1-methylethyl]-4-ethyl-4H-1,2,4-triazol-3-yl}-1H-indazole] | – | 0.023 | > 10 | – | – | –
CCn1c(N2CCc3[nH]ncc3C2)nnc1C(C)(C)Oc1c(F)cc(F)cc1F [Example 87, 5-{4-ethyl-5-[1-methyl-1-(2,4,6-trifluorophenoxy)ethyl]-4H-1,2,4-triazol-3-yl}-4,5,6,7-tetrahydro-1H-pyrazolo[4,3-c]pyridine dihydrochloride] | – | 0.013 | > 10 | – | – | –
C[C@H](Oc1ccc(C(N)=O)cc1Br)c1nnc(-c2ccccc2C(F)(F)F)n1C [Example 127] | – | 0.0087 | > 3 | – | – | –
Cn1c(-c2ccccc2C(F)(F)F)nnc1C(C)(C)Oc1ccc(Br)cn1 [Example 148] | 0.03 | 0.0046 | > 3 | – | – | –
Cn1c(-c2ccc(C(N)=O)cc2Cl)nnc1C(C)(C)Oc1c(F)cc(F)cc1F [Example 175] | – | 0.003 | > 3 | – | 1.24 | 20% (3 mg/kg)
Cn1c(-c2ccc(C(N)=O)cc2Cl)nnc1C(C)(C)Oc1c(F)cc(Cl)cc1F [Example 185] | – | 0.0029 | > 3 | – | – | –
Cn1c(-c2ccc(C(N)=O)cc2F)nnc1C(C)(C)Oc1c(F)cc(Cl)cc1F [Example 186] | 0.03 | 0.0033 | > 3 | – | – | 23% (3 mg/kg)
Cn1c(-c2ccccc2C(F)(F)F)nnc1C(C)(C)Oc1ccc(C(F)(F)F)cc1Cl [Example 204] | – | 0.12 | > 10 | 29% (10 mg/kg) | – | –
Cn1c(-c2ccc(F)cc2Br)nnc1C(C)(C)Oc1ccc(Cl)cc1 [Example 215] | 0.01 | 0.012 | > 10 | – | – | –
CC(C)(Oc1ccc(F)cc1F)c1nnc(-c2ccc(C(N)=O)cc2F)n1C1CC1 [Example 355] | – | 0.027 | > 10 | – | – | –
Cn1c(-c2ccc(F)c3ccccc23)nnc1C(C)(C)Oc1c(F)cc(F)cc1F [Example 373] | – | 0.1 | > 100 | – | – | –
Cn1c(-c2cc(Cl)ccc2Cl)nnc1C(C)(C)Oc1c(F)cc(F)cc1F [Example 374] | – | 0.05 | > 30 | – | – | –
CCn1c(-c2ccc(C(N)=O)cc2)nnc1C(C)(C)Oc1c(F)cc(Cl)cc1F [Example 509] | 0.01 | 0.021 | > 10 | – | – | –
CCn1c(-c2ccc3c(c2)CNC3=O)nnc1C(C)(C)Oc1c(F)cc(F)cc1F [Example 518] | – | 0.008 | > 3 | – | – | –
CC(C)(Oc1cc(F)c(F)cc1F)c1nnc(-c2ccc(C(N)=O)cc2F)n1C1CC1 [Example 525] | – | 0.029 | > 10 | – | – | –
CC(C)n1c(-c2ccc(C(N)=O)cc2)nnc1C(C)(C)Oc1c(F)cc(F)cc1F [Example 531] | – | 0.05 | > 10 | – | – | –
CC(C)n1c(-c2ccc(C(N)=O)cc2)nnc1C(C)(C)Oc1c(F)cc(Cl)cc1F [Example 535] | 0.01 | 0.054 | > 10 | – | – | –
Cn1c(-c2ccncc2C(F)(F)F)nnc1C(C)(C)Oc1c(F)cc(Cl)cc1F [Example 544] | – | 0.015 | > 10 | – | – | –
Cn1cc(-c2nnc(C(C)(C)Oc3c(F)cc(F)cc3F)n2C2CC2)c(Cl)n1 [Example 545] | – | 0.073 | > 10 | – | – | –
CC(C)(Oc1c(F)cc(Cl)cc1F)c1nnc(-c2cc3c(cc2F)C(=O)NC3)n1C1CC1 [Example 580] | – | 0.01 | > 3 | – | – | –
Cn1c(-c2sc(N)nc2C(F)(F)F)nnc1C(C)(C)Oc1c(F)cc(Cl)cc1F [Example 587] | – | 0.013 | > 3 | – | – | –
CC(C)n1c(-c2ccc(C(N)=O)cc2)nnc1C(C)(C)Oc1c(F)cccc1F [Example 616] | – | 0.02 | > 10 | – | – | –
